Measurements published in PMC9268591, “Anti-Inflammatory, Analgesic and Antioxidant Potential of New (2S,3S)-2-(4-isopropylbenzyl)-2-methyl-4-nitro-3-phenylbutanals and Their Corresponding Carboxylic Acids through In Vitro, In Silico and In Vivo Studies” (Molecules, 2022).
“And” between values parts separate entries of the source, which are not always exact repeats. Equal values may be shown once. Marks after values point to notes of the source that are not given here.

Legend:
[1] = system: mice; assay: Formalin-induced paw-licking test; conditions: 5 mg/kg i.p.
Experimental: Swiss albino mice of both sexes with an average weight of 30 to 35 g were obtained from the respective section of NIH (National Institute of Health) Islamabad, Pakistan.
The early phase was initially five minutes, while the late phase was 15-30 min. In both the phases, the mice were under observation for licking. As per the protocols, naloxone (2 mg/kg), indomethacin (10 mg/kg) and morphine (5 mg/kg) were used [28].

[2] = system: mice; assay: Hot plate test; set-up: species or system Swiss albino mice; conditions: mouse, in vivo

SMILES: CN1CC[C@]23c4c5ccc(O)c4O[C@H]2[C@@H](O)C=C[C@H]3[C@H]1C5 [Morphine]
- Percent (%) inhibition, 0–5 min ([1]; early phase): 88.64 *** %
- Time spent (licking) 0–5 min ([1]; early phase): 6.50 ± 0.78 s
- Percent (%) inhibition, 0–5 min ([1]; early phase, listed as morphine): 88.64%
- Percent (%) inhibition, 15–30 min ([1]; late phase): 93.81 *** %
- Time spent (licking) 15–30 min ([1]; late phase): 4.83 ± 0.62 s
- Percent (%) inhibition, 15–30 min ([1]; late phase, listed as morphine): 93.81%
- Reaction time on hot plate [2]: 12.88 ± 0.26 min and 12.31 ± 0.62 min and 11.86 ± 0.87 min
